Patent US12581252B2, “Substituted pyrrolo[3,4-b]pyridines as PI3K-α inhibitors” (Relay Therapeutics, Inc., priority 2020, dated 2026)

How the values were obtained:
cells = conditions: Homo sapiens, MCF-10A, read-out: MCF10A IC50
H1047R PIK3CA enzyme = H1047R PIK3CA enzyme (Homo sapiens, UniProt P42336, H1047R); test: ADP-Glo Biochemical PIK3CA Kinase Assay
H1047R PIK3CA enzyme, sequence (P42336 whole entry H1047R): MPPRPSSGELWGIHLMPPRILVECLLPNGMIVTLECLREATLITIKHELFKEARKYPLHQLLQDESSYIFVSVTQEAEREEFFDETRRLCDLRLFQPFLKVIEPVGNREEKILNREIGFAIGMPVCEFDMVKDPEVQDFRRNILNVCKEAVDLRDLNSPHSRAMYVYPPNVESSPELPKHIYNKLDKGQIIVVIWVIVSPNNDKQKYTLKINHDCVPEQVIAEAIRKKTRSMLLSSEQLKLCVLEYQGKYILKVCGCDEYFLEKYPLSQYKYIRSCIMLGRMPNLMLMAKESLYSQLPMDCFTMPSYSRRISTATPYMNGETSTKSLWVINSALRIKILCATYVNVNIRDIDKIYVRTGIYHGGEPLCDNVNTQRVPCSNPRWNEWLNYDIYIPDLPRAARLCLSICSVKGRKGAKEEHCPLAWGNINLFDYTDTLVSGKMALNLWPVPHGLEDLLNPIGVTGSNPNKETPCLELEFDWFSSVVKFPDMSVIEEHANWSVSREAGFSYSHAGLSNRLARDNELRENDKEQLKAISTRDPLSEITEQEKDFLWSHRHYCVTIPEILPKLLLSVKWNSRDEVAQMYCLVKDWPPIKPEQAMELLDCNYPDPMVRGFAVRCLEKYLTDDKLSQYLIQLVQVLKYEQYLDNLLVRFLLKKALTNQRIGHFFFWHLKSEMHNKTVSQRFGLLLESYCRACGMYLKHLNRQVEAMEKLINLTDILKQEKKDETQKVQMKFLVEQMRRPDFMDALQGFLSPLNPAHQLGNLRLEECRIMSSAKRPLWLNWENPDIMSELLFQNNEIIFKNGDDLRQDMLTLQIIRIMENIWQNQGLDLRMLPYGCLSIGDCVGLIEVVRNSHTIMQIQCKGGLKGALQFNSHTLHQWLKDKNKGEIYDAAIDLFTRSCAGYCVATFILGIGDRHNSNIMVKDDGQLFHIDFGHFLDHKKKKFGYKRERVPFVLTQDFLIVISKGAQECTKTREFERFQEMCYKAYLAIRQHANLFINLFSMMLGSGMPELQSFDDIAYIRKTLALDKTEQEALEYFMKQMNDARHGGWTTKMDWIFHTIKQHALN
H1047R PIK3CA enzyme, sequence (P27986 whole entry partner): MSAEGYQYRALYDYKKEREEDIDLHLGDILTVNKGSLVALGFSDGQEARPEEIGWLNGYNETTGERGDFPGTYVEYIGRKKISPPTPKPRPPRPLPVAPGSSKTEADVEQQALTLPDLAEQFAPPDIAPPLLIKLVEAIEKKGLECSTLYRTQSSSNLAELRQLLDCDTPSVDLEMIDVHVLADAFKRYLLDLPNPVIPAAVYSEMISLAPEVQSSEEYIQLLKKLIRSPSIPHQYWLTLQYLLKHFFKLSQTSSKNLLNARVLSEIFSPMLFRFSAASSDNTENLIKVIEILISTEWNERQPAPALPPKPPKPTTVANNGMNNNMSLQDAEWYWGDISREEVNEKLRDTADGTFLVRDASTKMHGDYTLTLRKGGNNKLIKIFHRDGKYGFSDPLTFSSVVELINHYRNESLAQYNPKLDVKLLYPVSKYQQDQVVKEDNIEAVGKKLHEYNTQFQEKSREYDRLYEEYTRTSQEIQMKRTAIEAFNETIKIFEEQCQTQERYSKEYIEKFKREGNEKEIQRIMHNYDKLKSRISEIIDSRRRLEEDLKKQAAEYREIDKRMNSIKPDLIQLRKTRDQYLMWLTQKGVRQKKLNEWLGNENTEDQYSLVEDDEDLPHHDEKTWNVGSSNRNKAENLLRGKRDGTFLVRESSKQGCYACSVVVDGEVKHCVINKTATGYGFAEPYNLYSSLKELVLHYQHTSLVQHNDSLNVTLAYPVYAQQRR

Compound	IC50 (cells)	IC50 (H1047R PIK3CA enzyme)
O=C1N[C@@H](c2cc(F)ccc2Cl)c2c(NC(=O)N3C[C@@](O)(C(F)(F)F)c4cc(F)ccc43)cc(Cl)cc21 (single isomer, unassigned) [Compound I-2513]	< 1000 nM	≤ 100 nM
O=C1N[C@@H](c2cc(F)ccc2Cl)c2c(NC(=O)N3C[C@](O)(C(F)(F)F)c4cc(F)ccc43)cc(C3COC3)cc21 (single isomer, unassigned) [Compound I-2655]	< 1000 nM	≤ 100 nM
N#Cc1cnccc1-c1cc(NC(=O)c2cc(F)cc(C(F)(F)F)c2)c2c(c1)C(=O)NC2c1cc(F)ccc1Cl (stereo not shown) [Compound I-1098]	< 1000 nM	≤ 100 nM
O=C1NC(c2cc(F)ccc2Cl)c2c(NC(=O)c3cc(F)cc4c(Cl)c[nH]c34)cccc21 (stereo not shown) [Compound I-1161]	1000 to 5000 nM	100 to 500 nM
N#CN1CC(c2cc(NC(=O)c3cc(F)cc(C(F)(F)F)c3)c3c(c2)C(=O)NC3c2cc(F)ccc2Cl)C1 (stereo not shown) [Compound I-1157]	5000 to 10000 nM	≤ 100 nM
N#CCc1cc(NC(=O)N2CC(O)(C(F)(F)F)c3cc(F)ccc32)c2c(c1)C(=O)NC2c1cc(F)ccc1Cl (mixture of isomers) [Compound I-2596]	< 1000 nM	≤ 100 nM
Cc1nccn1-c1cc(NC(=O)N2C[C@@](O)(C(F)(F)F)c3cc(F)ccc32)c2c(c1)C(=O)N[C@@H]2c1cc(F)ccc1Cl (single isomer, unassigned) [Compound I-2661]	< 1000 nM	≤ 100 nM
O=C1N[C@H](c2cc(F)ccc2Cl)c2c(NC(=O)N3C[C@](O)(C(F)F)c4cc(F)ccc43)cccc21 (single isomer, unassigned) [Compound I-2558]	< 1000 nM	≤ 100 nM
Nc1cc(NC(=O)c2cc(F)cc(C(F)(F)F)c2)c2c(c1)C(=O)N[C@H]2c1cc(F)ccc1Cl [Compound I-218]	< 1000 nM	≤ 100 nM
O=C1N[C@@H](c2cc(F)ccc2Cl)c2c(NC(=O)c3csc4ccccc34)cc(-c3ccc4ncnn4c3)cc21 [Compound I-1684]	< 1000 nM	≤ 100 nM
O=C(Nc1cc(-c2n[nH]c3cccnc23)cc2c1C(c1cc(F)ccc1Cl)NC2=O)c1cc(F)cc(C(F)(F)F)c1 (stereo not shown) [Compound I-936]	< 1000 nM	≤ 100 nM
CC(C)(C)OC(=O)N1CC(n2cc(-c3cc(NC(=O)c4cc(F)cc(C(F)(F)F)c4)c4c(c3)C(=O)NC4c3cc(F)ccc3Cl)cn2)C1 (stereo not shown) [Compound I-944]	5000 to 10000 nM	≤ 100 nM
O=C(Nc1cc(NC2=NC3(CO2)CC(F)(F)C3)cc2c1C(c1cc(F)ccc1Cl)NC2=O)c1cc(F)cc(C(F)(F)F)c1 (stereo not shown) [Compound I-2409]	5000 to 10000 nM	≤ 100 nM
O=C1NC(c2cc(F)ccc2Cl)c2c(Nc3nccc4c(Cl)cc(F)cc34)cc(Br)cc21 (stereo not shown) [Compound I-959]	< 1000 nM	100 to 500 nM
O=C(Nc1cc(-c2cn3ncnc3cn2)cc2c1[C@H](c1cc(F)ccc1Cl)NC2=O)c1cc(F)cc(C(F)(F)F)c1 [Compound I-1441]	< 1000 nM	≤ 100 nM
O=C(Nc1cc(N2CCn3ncnc3C2)cc2c1C(c1cc(F)ccc1Cl)NC2=O)c1cc(F)cc(C(F)(F)F)c1 (stereo not shown) [Compound I-1040]	1000 to 5000 nM	≤ 100 nM
Cc1cc(-c2cc(NC(=O)c3cc(F)cc(C(F)(F)F)c3)c3c(c2)C(=O)NC3c2cc(F)ccc2Cl)cc2cnn(C)c12 (stereo not shown) [Compound I-927]	5000 to 10000 nM	100 to 500 nM
O=C(Nc1cc(-c2cn[nH]c2)nc2c1C(c1cc(F)ccc1Cl)NC2=O)c1cc(F)cc(C(F)(F)F)c1 (stereo not shown) [Compound I-161]	1000 to 5000 nM	≤ 100 nM
O=C1N[C@H](c2cc(F)ccc2Cl)c2c(NC(=O)N3C[C@H](O)c4cc(F)ccc43)cc(-n3ccnn3)cc21 (single isomer, unassigned) [Compound I-2369]	1000 to 5000 nM	≤ 100 nM
O=C(Nc1cc(Nc2cn[nH]c2)cc2c1C(c1cc(F)ccc1Cl)NC2=O)c1cc(F)cc(C(F)(F)F)c1 (stereo not shown) [Compound I-994]	< 1000 nM	≤ 100 nM
N#Cc1cc(NC(=O)N2C[C@@](O)(C(F)(F)F)c3ccccc32)c2c(c1)C(=O)N[C@@H]2c1cc(F)ccc1Cl (single isomer, unassigned) [Compound I-2564]	< 1000 nM	≤ 100 nM
Cc1ccccc1[C@@H]1NC(=O)c2cc(C(=O)NCC(F)F)cc(NC(=O)c3nsc4ccccc34)c21 [Compound I-166]	< 1000 nM	≤ 100 nM
Cn1nncc1-c1cc(NC(=O)c2cc(F)cc(C(F)(F)F)c2)c2c(c1)C(=O)NC2c1cc(F)ccc1Cl (stereo not shown) [Compound I-1030]	< 1000 nM	≤ 100 nM
O=C(Nc1cccc2c1C(c1cc(F)ccc1Cl)NC2=O)c1csc2c1CCCC2 (stereo not shown) [Compound I-2239]	1000 to 5000 nM	≤ 100 nM
Cc1ccccc1C1NC(=O)c2cc(NC3COC3)cc(NC(=O)c3csc4ccccc34)c21 (stereo not shown) [Compound I-51]	< 1000 nM	≤ 100 nM

Compound	IC50 (cells)	IC50 (H1047R PIK3CA enzyme)
O=C(Nc1cc(-c2ccc(N3CCOCC3)nc2)cc2c1C(c1cc(F)ccc1Cl)NC2=O)c1cc(F)cc(C(F)(F)F)c1 (stereo not shown) [Compound I-929]	< 1000 nM	≤ 100 nM
Nc1ncc(-c2cc(NC(=O)c3cc(F)cc(C(F)(F)F)c3)c3c(c2)C(=O)N[C@@H]3c2cc(F)ccc2Cl)cn1 (stereo in doubt) [Compound I-1003]	< 1000 nM	≤ 100 nM
Cc1ccccc1C1NC(=O)c2cccc(NC(=O)N3CCc4ccccc43)c21 (stereo not shown) [Compound I-43, N-[3-(2-methylphenyl)-1-oxo-2,3-dihydro-1H-isoindol-4-yl]-2,3-dihydro-1H-indole-1-carboxamide]	1000 to 5000 nM	≤ 100 nM
C#Cc1ccccc1-c1cc(NC(=O)c2cc(F)cc(C(F)(F)F)c2)c2c(c1)C(=O)NC2c1cc(F)ccc1Cl (stereo not shown) [Compound I-1163]	< 1000 nM	≤ 100 nM
O=C(Nc1cc(-c2nc3cnccc3[nH]2)cc2c1C(c1cc(F)ccc1Cl)NC2=O)c1cc(F)cc(C(F)(F)F)c1 (stereo not shown) [Compound I-1025]	1000 to 5000 nM	≤ 100 nM
O=C1N[C@H](c2cc(F)ccc2Cl)c2c(NC(=O)N3C[C@@](O)(C(F)(F)F)c4cc(F)ccc43)cc(-n3ccnn3)cc21 (single isomer, unassigned) [Compound I-2547]	< 1000 nM	≤ 100 nM
Cc1ccccc1C1NC(=O)c2cc(N)cc(NC(=O)c3nsc4ccccc34)c21 (stereo not shown) [Compound I-50, N-[6-Amino-3-(2-methylphenyl)-1-oxo-2,3-dihydro-1H-isoindol-4-yl]-1,2-benzothiazole-3-carboxamide]	< 1000 nM	≤ 100 nM
O=C(Nc1cc(NC2=NC(C(F)(F)F)CO2)cc2c1C(c1cc(F)ccc1Cl)NC2=O)c1cc(F)cc(C(F)(F)F)c1 (stereo not shown) [Compound I-2360]	5000 to 10000 nM	≤ 100 nM
O=C1N[C@@H](c2cc(F)ccc2Cl)c2c(NC(=O)N3C[C@H](O)c4cc(F)ccc43)cc(-n3ccccc3=O)cc21 (single isomer, unassigned) [Compound I-2350]	5000 to 10000 nM	≤ 100 nM
CNC(=O)c1cc(NC(=O)c2cc(F)cc(C(F)(F)F)c2)c2c(c1)C(=O)NC2c1cc(F)ccc1Cl (stereo not shown) [Compound I-493]	< 1000 nM	≤ 100 nM
Cc1nc2ncc(-c3cc(NC(=O)c4cc(F)cc(C(F)(F)F)c4)c4c(c3)C(=O)NC4c3cc(F)ccc3Cl)cn2n1 (stereo not shown) [Compound I-1124]	< 1000 nM	≤ 100 nM
N#CCc1cc(NC(=O)N2C[C@](O)(C(F)(F)F)c3cc(F)ccc32)c2c(c1)C(=O)N[C@@H]2c1cc(F)ccc1Cl (single isomer, unassigned) [Compound I-2627]	< 1000 nM	≤ 100 nM
CC(=O)Nc1cc(NC(=O)c2csc3ccccc23)c2c(c1)C(=O)NC2c1ccccc1C (stereo not shown) [Compound I-52]	< 1000 nM	≤ 100 nM
CC(C)(O)c1cc(NC(=O)c2cc(F)cc(C(F)(F)F)c2)c2c(c1)C(=O)N[C@H]2c1cc(F)ccc1C(F)F [Compound I-264]	1000 to 5000 nM	≤ 100 nM
Cc1ccccc1C1NC(=O)c2cc(NC(C)C)cc(NC(=O)c3csc4ccccc34)c21 (stereo not shown) [Compound I-53]	< 1000 nM	≤ 100 nM
CN(C)c1cc(NC(=O)N2C[C@](O)(C(F)(F)F)c3cc(F)ccc32)c2c(n1)C(=O)N[C@H]2c1cc(F)ccc1Cl (single isomer, unassigned) [Compound I-2690]	< 1000 nM	≤ 100 nM
CNc1cc(NC(=O)c2csc3ccccc23)c2c(c1)C(=O)NC2c1ccccc1C (stereo not shown) [Compound I-39]	1000 to 5000 nM	≤ 100 nM
Cn1cc(-c2cc(NC(=O)c3cc(F)cc(C(F)(F)F)c3)c3c(c2)C(=O)NC3c2cc(F)ccc2C(F)F)cn1 (stereo not shown) [Compound I-220]	< 1000 nM	≤ 100 nM
O=C(Nc1cc(-c2n[nH]c3ccccc23)cc2c1C(c1cc(F)ccc1Cl)NC2=O)c1cc(F)cc(C(F)(F)F)c1 (stereo not shown) [Compound I-937]	1000 to 5000 nM	100 to 500 nM
O=C1N[C@H](c2cc(F)ccc2Cl)c2c(NC(=O)N3C[C@H](O)c4c3ccc(F)c4F)cccc21 (single isomer, unassigned) [Compound I-2310]	< 1000 nM	≤ 100 nM
O=C(Nc1cc(-c2cncs2)cc2c1C(c1cc(F)ccc1Cl)NC2=O)c1cc(F)cc(C(F)(F)F)c1 (stereo not shown) [Compound I-1065]	< 1000 nM	≤ 100 nM
O=C1Cc2ccc(-c3cc(NC(=O)c4cc(F)cc(C(F)(F)F)c4)c4c(c3)C(=O)NC4c3cc(F)ccc3Cl)cc2N1 (stereo not shown) [Compound I-982]	< 1000 nM	≤ 100 nM
O=C(Nc1cc(CS(=O)(=O)C2CC2)cc2c1C(c1cc(F)ccc1Cl)NC2=O)c1cc(F)cc(C(F)(F)F)c1 (stereo not shown) [Compound I-1081]	< 1000 nM	≤ 100 nM
O=C1N[C@H](c2cc(F)ccc2Cl)c2c(NC(=O)N3C[C@@](O)(C(F)(F)F)c4cc(F)ccc43)ccnc21 (single isomer, unassigned) [Compound I-2698]	1000 to 5000 nM	≤ 100 nM
O=C(Nc1cc(-c2cnc3ncnn3c2)cc2c1C(c1cc(F)ccc1Cl)NC2=O)c1cc(F)cc(C(F)(F)F)c1 (stereo not shown) [Compound I-969]	< 1000 nM	≤ 100 nM
